Experimental data reported in patent US9283256B2, “Antibacterial composition comprising Salvia extracts” (Botanic Century (Beijing) Co. Ltd., priority 2007, dated 2016).
≈ marks a conversion by molar mass, not a printed value. Where two headings read alike, the source gives them in different places.

Experiments:
[1] = test system: Staphylococcus aureus; conditions: filter paper disc, chemicals isolated from Danshen; cited from earlier work
[2] = test system: MRSA 98; assay: MIC and MBC by microtitre well methods, PYN6 versus individual compounds (TEST 1); assay type: cell-based, Staphylococcus aureus
Method: (§1) Minimum Inhibitory and Minimum Bactericidal activities (MIC and MBC) of PYN6 were determined for 2 strains of MRSA using standard microtitre well methods. MICs were determined by measuring growth over 20 hrs using spectroscopy at 490 nm. MBCs were determined by subculture from these microtitre plates onto solid media after 20 hrs and determining survival of bacteria grown in the presence of PYN6.
TEST 1 MIC and MBC comparing PYN6 to A, B, C and D against MRSA 98

[3] = test system: MRSA 2; assay: MIC and MBC by microtitre well methods, PYN6 versus individual compounds (TEST 2); assay type: cell-based, Staphylococcus aureus; conditions: for MIC: microtitre well, growth over 20 hrs, 490 nm; for MBC: subculture onto solid media after 20 hrs
Method: as §1
TEST 2 MIC and MBC comparing PYN6 to A, B, C and D against MRSA 2

[4] = test system: Escherichia coli; conditions: dissolved in dimethylformamide (DMF); cited from earlier work
[5] = test system: Staphylococcus aureus ATCC225923; conditions: dissolved in dimethylformamide (DMF); cited from earlier work
[6] = test system: Bacillus aeruginosus ATCC227853; conditions: dissolved in dimethylformamide (DMF); cited from earlier work
[7] = test system: Haemolytic streptococcus; conditions: dissolved in dimethylformamide (DMF); cited from earlier work
[8] = dissolved in chloroform; cited from earlier work
[9] = test system: clinical isolates of MRSA (T3, 102, MRSA 99); assay type: cell-based, Staphylococcus aureus; conditions: sub-inhibitory sub-culture, 3 week test period
Method: This experiment was conducted to test for the rapid development of resistance in Staphylococcus aureus in the presence of sub-inhibitory doses of the active extract.
All clinical strains were from The Royal London, St Bartholomew's or Newham hospitals in London. Each strain had been identified as an MRSA.
High concentrations of organisms (10^7cfu/ml^−1) were grown in sub-inhibitory concentrations 0, 2 and 8 mg l^−1 of the active extract.
Organisms were sub-cultured into fresh active extract media at day 4 and again at day 7. MICs were checked weekly using standard methods. Subcultures were carried out in triplicate.

[10] = Staphylococcus aureus, MRSA, 20 h
[11] = Staphylococcus aureus, read-out: MIC
[12] = Staphylococcus aureus, read-out: MBC
[13] = TEST 1, MRSA 98, microtitre well, growth over 20 hrs, 490 nm
[14] = TEST 1, MRSA 98, subculture onto solid media after 20 hrs

neotanshinone C
anti-Staphylococcus aureus activity [1]: did not show activity

C[C@H]1COC2=C1C(=O)C(=O)c1c2ccc2c1CCCC2(C)C [D, Cryptotashinone]
MBC [2, 10]: 250 µg/mL (≈ 844 µM)
MIC [2, 10]: 15 µg/mL (≈ 50.6 µM)
MIC [3, 11]: 7.7 µg/mL (≈ 26 µM)
MBC [3, 12]: 125 µg/mL (≈ 422 µM)

Cc1coc2c1C(=O)C(=O)c1c-2ccc2c(C)cccc12 [A, Tashinone 1]
MIC [2, 13]: 125 µg/mL (≈ 452 µM)
MBC [2, 14]: <500 µg/mL
MIC [3]: 125 µg/mL (≈ 452 µM)
MBC [3]: >500 µg/mL
anti-Staphylococcus aureus activity [1]: did not show activity

neotanshinone A
anti-Staphylococcus aureus activity [1]: did not show activity

Cc1coc2c1C(=O)C(=O)c1c-2ccc2c1CCCC2(C)CO (stereo not drawn) [Tanshinone IIB]
anti-Staphylococcus aureus activity [1]: demonstrated anti-Staphylococcus aureus activity
minimum inhibitory concentration (MIC) [4]: 25 µg/mL (≈ 80.6 µM)
MIC [5]: 50 µg/mL (≈ 161 µM)
MIC [6]: 25 µg/mL (≈ 80.6 µM)
MIC [7]: 25 µg/mL (≈ 80.6 µM)

neotanshinone B
anti-Staphylococcus aureus activity [1]: did not show activity

Cc1cccc2c3c(ccc12)C1=C(C(=O)C3=O)[C@@H](C)CO1 [C, Dyhydrotashinone]
MIC [2, 13]: 8 µg/mL (≈ 28.7 µM)
MBC [2, 14]: 125 µg/mL (≈ 449 µM)
MIC [3]: 1.8 µg/mL (≈ 6.47 µM)
MBC [3]: 62 µg/mL (≈ 223 µM)
anti-Staphylococcus aureus activity [1]: demonstrated anti-Staphylococcus aureus activity

Cc1coc2c1C(=O)C(=O)c1c-2ccc2c1CCCC2(C)C [B, Tashinone 11A]
MIC ([2]; Staphylococcus aureus, TEST 1, MRSA 98, microtitre well, growth over 20 hrs, 490 nm, read-out: MIC): 125 µg/mL (≈ 425 µM)
MBC ([2]; Staphylococcus aureus, TEST 1, MRSA 98, subculture onto solid media after 20 hrs, read-out: MBC): < 500 µg/mL
MIC [3, 11]: 125 µg/mL (≈ 425 µM)
MBC [3, 12]: > 500 µg/mL
anti-Staphylococcus aureus activity [1]: did not show activity
minimum inhibitory concentration (MIC) [4]: 50 µg/mL (≈ 170 µM)
MIC [5]: 100 µg/mL (≈ 340 µM)
MIC [6]: 50 µg/mL (≈ 170 µM)
MIC [7]: 121.5 µg/mL (≈ 413 µM)
anti-microbial activity [8]: did not demonstrate any anti-microbial activity

Gentamicin
development of resistance [9]: no development of resistance
